Measured values taken from ChEMBL document CHEMBL5678818, “Discovery of potent SOS1 inhibitors that block RAS activation via disruption of the RAS-SOS1 interaction” (Proc Natl Acad Sci U S A, 2019).

How the values were obtained:
[1] = biological target: T1, Dual serine/threonine and tyrosine protein kinase (Homo sapiens) (UniProt Q6XUX3); test: Inhibition of RIPK5 (unknown origin) assessed as residual activity at 100 nM by KINOMEscan analysis relative to control
T1 sequence (whole entry): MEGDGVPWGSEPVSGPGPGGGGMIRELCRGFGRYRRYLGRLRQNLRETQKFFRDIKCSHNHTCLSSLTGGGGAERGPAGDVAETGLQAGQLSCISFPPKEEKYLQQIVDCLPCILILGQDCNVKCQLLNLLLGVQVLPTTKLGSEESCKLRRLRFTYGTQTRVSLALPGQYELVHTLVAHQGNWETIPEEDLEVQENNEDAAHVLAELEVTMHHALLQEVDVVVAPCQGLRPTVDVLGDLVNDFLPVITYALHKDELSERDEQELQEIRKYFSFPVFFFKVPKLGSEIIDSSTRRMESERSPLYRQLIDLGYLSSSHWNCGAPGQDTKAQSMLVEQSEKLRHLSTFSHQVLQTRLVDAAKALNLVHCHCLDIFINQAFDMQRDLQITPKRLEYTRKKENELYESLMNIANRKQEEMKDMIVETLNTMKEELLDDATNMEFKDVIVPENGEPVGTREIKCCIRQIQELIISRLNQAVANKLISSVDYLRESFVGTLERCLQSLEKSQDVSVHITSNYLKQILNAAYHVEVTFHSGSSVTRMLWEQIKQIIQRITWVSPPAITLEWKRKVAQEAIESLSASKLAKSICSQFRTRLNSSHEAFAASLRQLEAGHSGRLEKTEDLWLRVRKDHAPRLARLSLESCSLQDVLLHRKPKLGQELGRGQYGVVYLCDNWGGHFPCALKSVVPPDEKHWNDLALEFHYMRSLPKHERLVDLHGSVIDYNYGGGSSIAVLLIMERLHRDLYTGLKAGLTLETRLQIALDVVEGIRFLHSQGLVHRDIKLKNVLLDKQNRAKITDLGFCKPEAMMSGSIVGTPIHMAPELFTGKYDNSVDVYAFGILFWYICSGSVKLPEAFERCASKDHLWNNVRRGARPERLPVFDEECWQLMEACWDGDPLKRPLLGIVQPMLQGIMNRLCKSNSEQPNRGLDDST

[2] = test system: Proto-oncogene tyrosine-protein kinase receptor Ret (Homo sapiens), P07949 [V804L]; test: Inhibition of RET V804L mutant (unknown origin) assessed as residual activity at 100 nM by KINOMEscan analysis relative to control
[3] = biological target: Serine/threonine-protein kinase 32C (Homo sapiens) (UniProt Q86UX6); test: Inhibition of YANK3 (unknown origin) assessed as residual activity at 100 nM by KINOMEscan analysis relative to control
[4] = biological target: T2, MAP kinase-activated protein kinase 5 (Homo sapiens) (UniProt Q8IW41); test: Inhibition of MAPKAPK5 (unknown origin) assessed as residual activity at 100 nM by KINOMEscan analysis relative to control
T2 sequence (whole entry): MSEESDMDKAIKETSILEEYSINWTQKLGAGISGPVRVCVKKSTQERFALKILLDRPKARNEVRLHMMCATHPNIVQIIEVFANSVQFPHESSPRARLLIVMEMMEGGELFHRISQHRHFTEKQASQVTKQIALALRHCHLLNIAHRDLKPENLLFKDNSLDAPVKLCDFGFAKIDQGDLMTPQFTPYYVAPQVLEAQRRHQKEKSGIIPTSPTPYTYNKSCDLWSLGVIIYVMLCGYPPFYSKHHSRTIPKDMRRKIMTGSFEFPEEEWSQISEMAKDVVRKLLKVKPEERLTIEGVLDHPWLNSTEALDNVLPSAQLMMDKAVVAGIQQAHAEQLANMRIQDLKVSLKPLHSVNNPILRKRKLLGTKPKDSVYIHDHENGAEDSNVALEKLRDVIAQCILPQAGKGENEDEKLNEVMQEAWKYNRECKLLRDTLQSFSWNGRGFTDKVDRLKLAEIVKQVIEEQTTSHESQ

GTPase KRas = GTPase KRas (Homo sapiens, UniProt P01116, G12C); test: Inhibition of N-terminal GST-tagged recombinant human KRAS G12C mutant (1 to 169 residues) expressed in Escherichia coli assessed as reduction in intrinsic GTP exchange preincubated for 10 mins with KRAS followed by SOS1 addition measured after 30 mins in presence of EDA-GTP-DY-647P1 by HTRF analysis
[5] = biological target: Protein kinase C delta type (Homo sapiens) (UniProt Q05655); test: Inhibition of PRKCD (unknown origin) assessed as residual activity at 100 nM by KINOMEscan analysis relative to control
[6] = biological target: Proto-oncogene tyrosine-protein kinase receptor Ret (Homo sapiens) (UniProt P07949); test: Inhibition of RET (unknown origin) assessed as residual activity at 100 nM by KINOMEscan analysis relative to control
[7] = biological target: T3, Serine/threonine-protein kinase Nek11 (Homo sapiens) (UniProt Q8NG66); test: Inhibition of NEK11 (unknown origin) assessed as residual activity at 100 nM by KINOMEscan analysis relative to control
T3 sequence (whole entry): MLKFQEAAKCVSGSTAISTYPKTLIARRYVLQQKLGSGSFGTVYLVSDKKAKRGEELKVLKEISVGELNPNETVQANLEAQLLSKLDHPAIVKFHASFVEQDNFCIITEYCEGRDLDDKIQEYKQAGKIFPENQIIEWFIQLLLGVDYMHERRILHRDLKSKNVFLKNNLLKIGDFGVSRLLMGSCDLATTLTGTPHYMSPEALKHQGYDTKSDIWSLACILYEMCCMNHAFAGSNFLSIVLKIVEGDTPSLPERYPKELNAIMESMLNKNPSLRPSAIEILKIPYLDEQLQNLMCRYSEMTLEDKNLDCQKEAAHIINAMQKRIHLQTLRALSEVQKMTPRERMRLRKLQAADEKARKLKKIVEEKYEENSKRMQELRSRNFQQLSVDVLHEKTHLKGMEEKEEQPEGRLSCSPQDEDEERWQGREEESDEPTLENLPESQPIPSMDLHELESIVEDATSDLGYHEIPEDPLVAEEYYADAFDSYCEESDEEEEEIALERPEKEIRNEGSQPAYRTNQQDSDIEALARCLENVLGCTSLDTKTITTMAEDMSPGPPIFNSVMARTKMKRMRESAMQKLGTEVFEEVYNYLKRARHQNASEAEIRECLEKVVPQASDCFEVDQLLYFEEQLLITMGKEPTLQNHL

## COc1cc2ncnc(N[C@H](C)c3cccc4ccccc34)c2cc1OC
[1]
  Activity: 96%
[2]
  Activity: 99%
[3]
  Activity: 100%
[4]
  Activity: 94%
GTPase KRas
  IC50: > 20 µM
[5]
  Activity: 100%
[6]
  Activity: 86%
[7]
  Activity: 79%
